Data from PubChem BioAssay (NCI).
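GI50 marks 50% less growth. TGI denotes the concentration required for complete inhibition of growth.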

Legend:
Experiment in all cases: NCI anticancer screen, dose series, 384-well format
786-0 renal = test system: 786-0 renal
A549 NSCLC = test system: A549 NSCLC
ACHN renal = test system: ACHN renal
BT-549 breast = test system: BT-549 breast
CAKI-1 renal = test system: CAKI-1 renal
COLO 205 colon = test system: COLO 205 colon
DU-145 prostate = test system: DU-145 prostate
HCC-2998 colon = test system: HCC-2998 colon
HCT-116 colon = test system: HCT-116 colon
HCT-15 colon = test system: HCT-15 colon
HL-60(TB) leukemia = test system: HL-60(TB) leukemia
HOP-62 NSCLC = test system: HOP-62 NSCLC
HOP-92 NSCLC = test system: HOP-92 NSCLC
HS 578T breast = test system: HS 578T breast
IGROV1 ovarian = test system: IGROV1 ovarian
K-562 leukemia = test system: K-562 leukemia
KM12 colon = test system: KM12 colon
MALME-3M melanoma = test system: MALME-3M melanoma
MCF7 breast = test system: MCF7 breast
MDA-MB-435 melanoma = test system: MDA-MB-435 melanoma
MDA-MB-468 breast = test system: MDA-MB-468 breast
MOLT-4 leukemia = test system: MOLT-4 leukemia
NCI-H23 lung = test system: NCI-H23 lung
NCI-H322M lung = test system: NCI-H322M lung
NCI-H460 NSCLC = test system: NCI-H460 NSCLC
NCI-H522 lung = test system: NCI-H522 lung
OVCAR-3 ovarian = test system: OVCAR-3 ovarian
OVCAR-4 ovarian = test system: OVCAR-4 ovarian
OVCAR-5 ovarian = test system: OVCAR-5 ovarian
RPMI-8226 leukemia = test system: RPMI-8226 leukemia
RXF 393 renal = test system: RXF 393 renal
SF-268 CNS = test system: SF-268 CNS
SF-295 CNS = test system: SF-295 CNS
SF-539 CNS = test system: SF-539 CNS
SK-MEL-2 melanoma = test system: SK-MEL-2 melanoma
SK-MEL-28 melanoma = test system: SK-MEL-28 melanoma
SK-MEL-5 melanoma = test system: SK-MEL-5 melanoma
SN12C renal = test system: SN12C renal
SNB-19 CNS = test system: SNB-19 CNS
SNB-75 CNS = test system: SNB-75 CNS
SR leukemia = test system: SR leukemia
SW-620 colon = test system: SW-620 colon
T-47D breast = test system: T-47D breast
U251 glioblastoma = test system: U251 glioblastoma
UACC-257 melanoma = test system: UACC-257 melanoma
UACC-62 melanoma = test system: UACC-62 melanoma
UO-31 renal = test system: UO-31 renal

NC(=O)c1nc(-c2c(F)cccc2Cl)oc1Nc1ccc(C(=O)N2CCOCC2)cc1
GI50 ([…]-0 renal): 3.95 µM | TGI (786-0 renal): 9.55 µM | GI50 (A549 NSCLC): 0.686 µM | TGI (A549 NSCLC): 5.44 µM | GI50 (ACHN renal): 0.779 µM | TGI (ACHN renal): 3.6 µM | GI50 (BT-549 breast): 2 µM | TGI (BT-549 breast): 5.84 µM | GI50 (CAKI-1 renal): 1.76 µM | TGI (CAKI-1 renal): 5.85 µM | GI50 (COLO 205 colon): 1.13 µM | TGI (COLO 205 colon): 7.44 µM | GI50 (DU-145 prostate): 4.44 µM | TGI (DU-145 prostate): 23.2 µM | GI50 (HCC-2998 colon): 6.72 µM | TGI (HCC-2998 colon): 21.9 µM | GI50 (HCT-116 colon): 0.957 µM | TGI (HCT-116 colon): 13.8 µM | GI50 (HCT-15 colon): 2.41 µM | TGI (HCT-15 colon): 19 µM | GI50 (HL-60(TB) leukemia): 0.36 µM | TGI (HL-60(TB) leukemia): 1.09 µM | GI50 (HOP-62 NSCLC): 2.41 µM | TGI (HOP-62 NSCLC): 19.6 µM | GI50 (HOP-92 NSCLC): 0.576 µM | TGI (HOP-92 NSCLC): 2.35 µM | GI50 (HS 578T breast): 1.34 µM | TGI (HS 578T breast): 3.75 µM | GI50 (IGROV1 ovarian): 1.4 µM | TGI (IGROV1 ovarian): 3.17 µM | GI50 (K-562 leukemia): 1.62 µM | TGI (K-562 leukemia): 15 µM | GI50 (KM12 colon): 0.17 µM | TGI (KM12 colon): 3.89 µM | GI50 (MALME-3M melanoma): 4.68 µM | TGI (MALME-3M melanoma): 12.3 µM | GI50 (MCF7 breast): 0.708 µM | TGI (MCF7 breast): 16.8 µM | GI50 (MDA-MB-435 melanoma): 11.8 µM | TGI (MDA-MB-435 melanoma): > 51 µM | GI50 (MDA-MB-468 breast): 1.5 µM | TGI (MDA-MB-468 breast): 4.23 µM | GI50 (MOLT-4 leukemia): 0.182 µM | TGI (MOLT-4 leukemia): 0.436 µM | GI50 (NCI-H23 lung): 0.6 µM | TGI (NCI-H23 lung): 4.43 µM | GI50 (NCI-H322M lung): 6.5 µM | TGI (NCI-H322M lung): 23.6 µM | GI50 (NCI-H460 NSCLC): 0.395 µM | TGI (NCI-H460 NSCLC): 10.6 µM | GI50 (NCI-H522 lung): 0.795 µM | TGI (NCI-H522 lung): 3.76 µM | GI50 (OVCAR-3 ovarian): 1.6 µM | TGI (OVCAR-3 ovarian): 7.65 µM | GI50 (OVCAR-4 ovarian): 2.09 µM | TGI (OVCAR-4 ovarian): 6.3 µM | GI50 (OVCAR-5 ovarian): 2.47 µM | TGI (OVCAR-5 ovarian): 19.6 µM | GI50 (RPMI-8226 leukemia): 0.444 µM | TGI (RPMI-8226 leukemia): 4.28 µM | GI50 (RXF 393 renal): 1.1 µM | TGI (RXF 393 renal): 3.3 µM | GI50 (SF-268 CNS): 2.45 µM | TGI (SF-268 CNS): 11.2 µM | GI50 (SF-295 CNS): 2.95 µM | TGI (SF-295 CNS): > 45.9 µM | GI50 (SF-539 CNS): 1.45 µM | TGI (SF-539 CNS): 7.64 µM | GI50 (SK-MEL-2 melanoma): 15.3 µM | TGI (SK-MEL-2 melanoma): 30.1 µM | GI50 (SK-MEL-28 melanoma): 14.2 µM | TGI (SK-MEL-28 melanoma): > 90.9 µM | GI50 (SK-MEL-5 melanoma): 13.6 µM | TGI (SK-MEL-5 melanoma): 34.7 µM | GI50 (SN12C renal): 1.64 µM | TGI (SN12C renal): 13.6 µM | GI50 (SNB-19 CNS): 3.46 µM | TGI (SNB-19 CNS): 24.9 µM | GI50 (SNB-75 CNS): 1.78 µM | TGI (SNB-75 CNS): 4.24 µM | GI50 (SR leukemia): 0.189 µM | TGI (SR leukemia): 0.342 µM | GI50 (SW-620 colon): 0.48 µM | TGI (SW-620 colon): 3.37 µM | GI50 (T-47D breast): 0.682 µM | TGI (T-47D breast): 20.7 µM | GI50 (U251 glioblastoma): 2.59 µM | TGI (U251 glioblastoma): 16 µM | GI50 (UACC-257 melanoma): 23.1 µM | TGI (UACC-257 melanoma): > 54.8 µM | GI50 (UACC-62 melanoma): 5.96 µM | TGI (UACC-62 melanoma): 20.4 µM | GI50 (UO-31 renal): 0.171 µM | TGI (UO-31 renal): 0.322 µM
